Assay results as given in ChEMBL document CHEMBL1125876, “Conformationally defined neurotransmitter analogues. Selective inhibition of glutamate uptake by one pyrrolidine-2,4-dicarboxylate diastereomer” (1991).
Values belong to the molecule of their own block, whether it stands above or below them.

Legend:
Set-up in all cases: scale not given: the % may be the effect or the level left
[1] = target: Glutamate receptor ionotropic, kainate 2 (Rattus norvegicus) (UniProt P42260); assay: Compound tested for its ability to inhibit [3H]- KA binding to ionotropic glutamate receptor kainate at the concentration of 100 uM
[2] = target: T1, Glutamate NMDA receptor (Rattus norvegicus) (UniProt P35439+Q00959+Q00960+Q00961+Q62645+Q8VHN2+Q9R1M7); assay: Compound tested for its ability to inhibit [3H]- -L-Glu binding to N-methyl-D-aspartate glutamate receptor at the concentration of 100 uM; format: protein-complex assay
Rattus norvegicus = species on record: Rattus norvegicus; assay: Comparative inhibition of L-Glutamate uptake at the concentration of 5 uM of [3H]-L- glutamate radioligand; format: functional
[3] = target: T1, Glutamate NMDA receptor (Rattus norvegicus); assay: Compound tested for its ability to inhibit [3H]- -L-Glu binding to N-methyl-D-aspartate glutamate receptor at the concentration of 20 uM; format: protein-complex assay

Sequence of Glutamate receptor ionotropic, kainate 2 (Rattus norvegicus) (P42260 whole entry): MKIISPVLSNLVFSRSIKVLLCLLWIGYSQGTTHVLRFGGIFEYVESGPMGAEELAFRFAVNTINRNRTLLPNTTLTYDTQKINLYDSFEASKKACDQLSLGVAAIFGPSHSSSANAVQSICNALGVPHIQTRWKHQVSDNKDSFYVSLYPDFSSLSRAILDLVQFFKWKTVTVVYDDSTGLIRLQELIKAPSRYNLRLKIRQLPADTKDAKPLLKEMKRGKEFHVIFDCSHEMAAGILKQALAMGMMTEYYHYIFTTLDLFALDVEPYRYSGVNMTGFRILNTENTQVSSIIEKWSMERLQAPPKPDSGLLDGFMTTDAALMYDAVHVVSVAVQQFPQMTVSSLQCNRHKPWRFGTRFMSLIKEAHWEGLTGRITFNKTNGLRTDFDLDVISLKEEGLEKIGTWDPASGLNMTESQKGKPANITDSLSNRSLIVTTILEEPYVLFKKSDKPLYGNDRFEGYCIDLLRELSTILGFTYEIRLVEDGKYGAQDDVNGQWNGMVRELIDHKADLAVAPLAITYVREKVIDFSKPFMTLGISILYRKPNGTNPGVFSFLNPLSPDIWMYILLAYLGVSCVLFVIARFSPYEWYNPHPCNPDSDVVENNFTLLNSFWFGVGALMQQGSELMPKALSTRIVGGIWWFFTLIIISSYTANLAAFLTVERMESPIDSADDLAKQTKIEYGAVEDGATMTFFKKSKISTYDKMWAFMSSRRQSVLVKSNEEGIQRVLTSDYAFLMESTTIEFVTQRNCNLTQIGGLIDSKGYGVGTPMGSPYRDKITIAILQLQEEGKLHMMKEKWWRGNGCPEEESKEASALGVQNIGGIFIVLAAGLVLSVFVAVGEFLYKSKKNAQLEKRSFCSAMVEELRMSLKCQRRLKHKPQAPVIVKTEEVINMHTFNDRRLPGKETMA

SMILES: O=C(O)[C@@H]1CN[C@@H](C(=O)O)C1
Control [1]: 92%
Control [2]: 95%

SMILES: N[C@H](CC(=O)O)C(=O)O [D-ASPARTATE]
Control (Rattus norvegicus): 58%

SMILES: O=C(O)[C@H]1CN[C@@H](C(=O)O)C1
Control [1]: 101%
Control [2]: 38%
Control [3]: 76%

SMILES: CC(C)[C@H]1CN[C@H](C(=O)O)[C@H]1CC(=O)O [DIHYDROKAINATE]
Control (Rattus norvegicus): 93%

Second part, led by results:

Control [1]: 100%
Control [2]: 89%
SMILES: O=C(O)[C@@H]1CN[C@H](C(=O)O)C1

Control [1]: 102%
Control [2]: 87%
SMILES: O=C(O)[C@H]1CN[C@H](C(=O)O)C1
Control (Rattus norvegicus): 45%
